Patent US20150140088A1, “SPIROSTEROID SYSTEMS ACTING AS NEUROPROTECTIVE AND ANTI-INFLAMMATORY AGENTS” (priority 2011, published 2015)

Tested on: PC12 cells exposed to L-glutamate
Experiment: Anti-glutamatergic effect on PC12 cells exposed to L-glutamate (MTT cellular vitality)
Assay type: cell-based
Conditions: 10 μM; PC12 cells exposed to L-glutamate (20 mM) for 24 h; result in words
Experimental: PC12 constitute a neuron-like cell line widely employed in several models of neurological diseases. The patophysiological mechanisms which can be simulated in those in vitro models, allows the use of PC12 cells in evaluation of therapeutic candidates.
The synthetic spirosteroids series (10 μM of each molecule) was evaluated on PC12 cells exposed to L-glutamate (20 mM) for 24 h. Previously, those cells were routinely cultivated in RPMI 1640 medium, supplemented with equine serum (10%) and fetal bovine serum (5%) in a 37° C. and 5% CO2 atmosphere. In the beginning of the experiment, cells were seeded in 96-well microplates at a cellular density of 150,000 cells/mL. After 24 h of exposition to glutamatergic damage and spirosteroids treatment, cellular vitality was determined with 3-(4,5-dimethylthiazol-2-yl)-2,5-diphenyltetrazolium bromide (MTT), which is metabolized by mitochondrial deshydrogenases in living cells. […] All molecules of the synthetic spirosteroids series were non cytotoxic at the concentration employed for the in vitro anti-glutamatergic assay (data no shown).

## C[C@@H]1CC[C@@]2(OC1)O[C@H]1C[C@H]3[C@@H]4CC(=O)C5C[C@H](O)[C@H](O)C[C@]5(C)[C@H]4CC[C@]3(C)[C@H]1[C@@H]2C (stereo partly drawn) [2α,3α-dyhydroxy-(25R)-spirostan-6-one]
  anti-glutamatergic and neuroprotector effect: most active

## C[C@@H]1CC[C@@]2(OC1)O[C@H]1C[C@H]3[C@@H]4CC(=O)C5CC(=O)CC[C@]5(C)[C@H]4CC[C@]3(C)[C@H]1[C@@H]2C (stereo partly drawn) [3,6-dione-(25R)-spirostan]
  anti-glutamatergic and neuroprotector effect: most active
